Data from PubChem BioAssay (NCI).
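Assay format: 96-well plates, 48-hour exposure. TGI denotes the concentration required for complete inhibition of growth.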

Tests used:
Assay in all cases: DTP human tumour cell line panel, 48 h
[1] = system: COLO 205 colon
[2] = system: HCT-15 colon
[3] = system: HT29 colon
[4] = system: NCI-H23 lung
[5] = system: NCI-H522 lung
[6] = system: OVCAR-4 ovarian
[7] = system: PC-3 prostate
[8] = system: SF-539 CNS
[9] = system: UACC-257 melanoma
[10] = system: UACC-62 melanoma

Q: What does the source list for `C[N+]1(C)C2Cc3ccccc3C1Cc1ccccc12`?
A: TGI [1]: > 100 µM; TGI [2]: > 100 µM; TGI [3]: > 100 µM; TGI [4]: > 100 µM; TGI [5]: > 100 µM; TGI [6]: > 100 µM; TGI [7]: > 100 µM; TGI [8]: > 100 µM; TGI [9]: > 100 µM; TGI [10]: > 100 µM

Q: With `COc1ccc(C2SCC(=O)N2N=C2NC(=O)CC(=O)N2)cc1` (stereo not given) as the molecule, how does the TGI [1] read?
A: > 100 µM

Q: What about the TGI [2] of the same molecule?
A: > 100 µM

Q: What about the TGI [3] of the same molecule?
A: > 100 µM

Q: What about the TGI [4] of the same molecule?
A: > 100 µM

Q: And the TGI [5]?
A: > 100 µM

Q: What about the TGI [6] of the same molecule?
A: > 100 µM

Q: What about the TGI [7] of the same molecule?
A: > 100 µM

Q: And the TGI [8]?
A: > 100 µM

Q: What about the TGI [9] of the same molecule?
A: > 100 µM

Q: And the TGI [10]?
A: > 100 µM

Q: Which results are given for `CCC1(O)C=CC(=O)C=C1`?
A: TGI [1]: > 100 µM; TGI [2]: 55.5 µM; TGI [3]: > 100 µM; TGI [4]: 69.3 µM; TGI [5]: 24.7 µM; TGI [6]: > 100 µM; TGI [7]: > 62.2 µM; TGI [8]: 50.6 µM; TGI [9]: > 52.5 µM; TGI [10]: 43.6 µM

Q: For `CC12CC3c4ccccc4CN1C3(c1ccccc1)OC2=O` (stereo not given), which TGI [1] is on record?
A: > 100 µM

Q: And the TGI [2]?
A: > 100 µM

Q: And the TGI [3]?
A: > 100 µM

Q: What about the TGI [4] of the same molecule?
A: > 100 µM

Q: What about the TGI [5] of the same molecule?
A: > 100 µM

Q: What about the TGI [6] of the same molecule?
A: > 100 µM

Q: And the TGI [7]?
A: > 100 µM

Q: What about the TGI [8] of the same molecule?
A: > 100 µM

Q: And the TGI [9]?
A: > 100 µM

Q: What about the TGI [10] of the same molecule?
A: > 100 µM

Q: Which results are given for `CC1C(c2ccc(N(C)C)cc2)c2cc3c(cc2OC1N1CCCC1)OCO3` (stereo not given)?
A: TGI [1]: > 100 µM; TGI [2]: > 100 µM; TGI [3]: > 81.9 µM; TGI [4]: > 100 µM; TGI [5]: > 82 µM; TGI [6]: > 100 µM; TGI [7]: > 100 µM; TGI [8]: 60.2 µM; TGI [9]: > 100 µM; TGI [10]: > 100 µM

Q: For `N#CI1OC(=O)c2ccccc21`, which TGI [1] is on record?
A: > 100 µM

Q: And the TGI [2]?
A: > 100 µM

Q: What about the TGI [3] of the same molecule?
A: > 100 µM

Q: What about the TGI [4] of the same molecule?
A: > 100 µM

Q: And the TGI [5]?
A: 55.6 µM

Q: What about the TGI [6] of the same molecule?
A: > 100 µM

Q: What about the TGI [7] of the same molecule?
A: > 100 µM

Q: And the TGI [8]?
A: > 100 µM

Q: And the TGI [9]?
A: > 100 µM

Q: What about the TGI [10] of the same molecule?
A: > 100 µM

Q: How did the TGI [1] turn out when `COC(=O)[C@]1(C)CCCn2c(=O)n(-c3ccccc3)c(=O)n21` was run?
A: > 100 µM

Q: What about the TGI [2] of the same molecule?
A: > 100 µM

Q: And the TGI [3]?
A: > 100 µM

Q: And the TGI [4]?
A: > 100 µM

Q: And the TGI [5]?
A: > 100 µM

Q: What about the TGI [6] of the same molecule?
A: > 100 µM

Q: What about the TGI [7] of the same molecule?
A: > 100 µM

Q: And the TGI [8]?
A: > 100 µM

Q: What about the TGI [9] of the same molecule?
A: > 100 µM

Q: And the TGI [10]?
A: > 100 µM

Q: What does the source list for `O=C(Cc1ccc(Cl)c(Cl)c1)NCCCN1CCN(CCCN2CCCCC2)CC1`?
A: TGI [1]: 29.8 µM; TGI [2]: 46.5 µM; TGI [3]: 29.9 µM; TGI [4]: 42.6 µM; TGI [5]: 35.1 µM; TGI [6]: > 100 µM; TGI [7]: 40.7 µM; TGI [8]: 28.8 µM; TGI [9]: 19.6 µM; TGI [10]: 13.8 µM

Q: `O=S(=O)(O)c1ccc(NN(c2c(O)ccc3ccccc23)S(=O)(=O)O)cc1` was tested. Which TGI [1] did it give?
A: > 100 µM

Q: And the TGI [2]?
A: > 100 µM

Q: And the TGI [3]?
A: > 100 µM

Q: What about the TGI [4] of the same molecule?
A: > 100 µM

Q: And the TGI [5]?
A: > 100 µM

Q: And the TGI [6]?
A: > 100 µM

Q: What about the TGI [7] of the same molecule?
A: > 100 µM

Q: And the TGI [8]?
A: > 100 µM

Q: And the TGI [9]?
A: > 100 µM

Q: What about the TGI [10] of the same molecule?
A: > 100 µM

Q: Which TGI [1] does the source give for `Oc1c(OCc2nnc(CCCCCCCCc3nnc(COc4ccc5ccccc5c4O)n3Nc3ccccc3)n2Nc2ccccc2)ccc2ccccc12` here?
A: 1.32 µM

Q: And the TGI [2]?
A: 30 µM

Q: And the TGI [3]?
A: 26.2 µM

Q: What about the TGI [4] of the same molecule?
A: 35.2 µM

Q: And the TGI [5]?
A: 27.3 µM

Q: What about the TGI [6] of the same molecule?
A: 20.7 µM

Q: What about the TGI [7] of the same molecule?
A: 19.2 µM

Q: What about the TGI [8] of the same molecule?
A: 20 µM

Q: And the TGI [9]?
A: 25.7 µM

Q: And the TGI [10]?
A: 16.5 µM

Q: Which TGI [1] does the source give for `CCOC(=O)c1ccc(NC2Oc3cc4c(cc3C(c3cc(OC)c(OC)c(OC)c3)C2C)OCO4)cc1` (stereo not given) here?
A: 0.645 µM

Q: And the TGI [2]?
A: > 54.6 µM

Q: And the TGI [3]?
A: 12.9 µM

Q: And the TGI [4]?
A: > 67.3 µM

Q: What about the TGI [5] of the same molecule?
A: 10.6 µM

Q: What about the TGI [6] of the same molecule?
A: > 64.7 µM

Q: What about the TGI [7] of the same molecule?
A: > 100 µM

Q: And the TGI [8]?
A: 0.878 µM

Q: What about the TGI [9] of the same molecule?
A: > 100 µM

Q: What about the TGI [10] of the same molecule?
A: 64.5 µM

Q: Which TGI [1] does the source give for `O=c1cnn(C2OC(CO)C(O)C(F)C2O)c(=O)[nH]1` (stereo not given) here?
A: > 100 µM

Q: And the TGI [2]?
A: > 100 µM

Q: And the TGI [3]?
A: > 100 µM

Q: What about the TGI [4] of the same molecule?
A: > 100 µM

Q: And the TGI [5]?
A: > 100 µM

Q: What about the TGI [6] of the same molecule?
A: > 100 µM

Q: What about the TGI [7] of the same molecule?
A: > 100 µM

Q: And the TGI [8]?
A: > 100 µM

Q: What about the TGI [9] of the same molecule?
A: > 100 µM

Q: What about the TGI [10] of the same molecule?
A: > 100 µM

Q: What does the source list for `COc1ccc(CN2C(=O)CCC/C=C\[C@H]2CI)cc1`?
A: TGI [1]: 26.9 µM; TGI [2]: 24.9 µM; TGI [3]: 21.5 µM; TGI [4]: 28.7 µM; TGI [5]: 26.5 µM; TGI [6]: 22.8 µM; TGI [7]: 20.7 µM; TGI [8]: 26.4 µM; TGI [9]: 21.7 µM; TGI [10]: 22.6 µM

Q: Which results are given for `NC1=CN(CCCO)C2=N/C(=C\c3ccco3)C(=O)N12`?
A: TGI [1]: > 100 µM; TGI [2]: > 100 µM; TGI [3]: > 100 µM; TGI [4]: > 100 µM; TGI [5]: > 100 µM; TGI [6]: > 100 µM; TGI [7]: > 100 µM; TGI [8]: > 100 µM; TGI [9]: > 100 µM; TGI [10]: > 100 µM

Q: How did the TGI [1] turn out when `COc1ccc2c(c1O)-c1c(OC)c(OC)cc3c1[C@H](C2)[N+](C)(C)CC3` was run?
A: > 100 µM

Q: And the TGI [2]?
A: > 100 µM

Q: What about the TGI [3] of the same molecule?
A: > 100 µM

Q: And the TGI [4]?
A: > 100 µM

Q: What about the TGI [5] of the same molecule?
A: > 100 µM

Q: What about the TGI [6] of the same molecule?
A: > 100 µM

Q: What about the TGI [7] of the same molecule?
A: > 100 µM

Q: And the TGI [8]?
A: > 100 µM

Q: What about the TGI [9] of the same molecule?
A: > 100 µM

Q: And the TGI [10]?
A: > 100 µM

Q: With `c1ccc(COc2ccc(C[P+](c3ccccc3)(c3ccccc3)c3ccccc3)cc2)cc1` as the molecule, how does the TGI [1] read?
A: 3.26 µM

Q: And the TGI [2]?
A: 13.6 µM

Q: What about the TGI [3] of the same molecule?
A: 2.02 µM

Q: And the TGI [4]?
A: 1.36 µM

Q: What about the TGI [5] of the same molecule?
A: 1.61 µM

Q: And the TGI [6]?
A: 1.84 µM

Q: And the TGI [7]?
A: 3.07 µM

Q: And the TGI [8]?
A: 3.5 µM

Q: What about the TGI [9] of the same molecule?
A: 11.6 µM

Q: What about the TGI [10] of the same molecule?
A: 1.74 µM

Q: Which results are given for `O=C(CCSC(CC(=O)c1ccc(Cl)cc1)c1ccc(Cl)cc1)Nc1ccc(Cl)cc1` (stereo not given)?
A: TGI [1]: 35.2 µM; TGI [2]: 24.2 µM; TGI [3]: 24.6 µM; TGI [4]: 30.4 µM; TGI [5]: 40.2 µM; TGI [6]: 35.5 µM; TGI [7]: 27.1 µM; TGI [8]: 32.6 µM; TGI [9]: 29.6 µM; TGI [10]: 21.9 µM

Q: `NCCC1(N)CCNCC1` was tested. Which TGI [1] did it give?
A: > 100 µM

Q: What about the TGI [2] of the same molecule?
A: > 100 µM

Q: What about the TGI [3] of the same molecule?
A: > 100 µM

Q: What about the TGI [4] of the same molecule?
A: > 100 µM

Q: And the TGI [5]?
A: > 100 µM

Q: What about the TGI [6] of the same molecule?
A: > 100 µM

Q: And the TGI [7]?
A: > 100 µM

Q: And the TGI [8]?
A: > 100 µM

Q: And the TGI [9]?
A: > 100 µM

Q: And the TGI [10]?
A: > 100 µM

Q: How did the TGI [1] turn out when `N#Cc1[nH]c(=O)n(-c2ccc([N+](=O)[O-])cc2)c1N` was run?
A: > 10 µM

Q: What about the TGI [2] of the same molecule?
A: > 10 µM

Q: And the TGI [3]?
A: > 10 µM

Q: What about the TGI [4] of the same molecule?
A: > 10 µM

Q: And the TGI [5]?
A: > 10 µM

Q: What about the TGI [6] of the same molecule?
A: > 10 µM

Q: And the TGI [7]?
A: > 10 µM

Q: What about the TGI [8] of the same molecule?
A: > 10 µM

Q: What about the TGI [9] of the same molecule?
A: > 10 µM

Q: And the TGI [10]?
A: > 10 µM
